Key:
[1] = Microsomal stability assay, human; assay type: in vitro ADME; conditions: metabolic stability, human liver microsomes 0.5 mg/mL, substrate 3 uM
Procedure: (§1) The micorsomal stability assay is generally performed as follows. Format: 15 compounds (and 1 control verapamil) in 3 different species in duplicate sets Substrate: 3 uM Protein concentration: 0.5 mg/mL (for dog, rat, and human liver microsomes) Cofactor: 1×NADPH-Regenerating system Time-points: 2, 12, 25, 45, and 65 minutes [table] Sample preparation: 25 uL at each timepoint is added to plate with 225 uL quenching solution (50% MeOH, 25% ACN, 25% H2O, and 50 nM […]). After plates are vortexed, centrifuge for 30 minutes. Microsomal solutions: take 400 uL of 20 mg/mL microsomes and add to 13,680 uL 100 mM KPO4 buffer. Using an 8-channel, add 650 uL of this solution to the designated two columns on a short plate. The order should be dog microsomes in columns 1 and 2, rat microsomes in columns 3 and 4, and human microsomes in columns 5 and 6. Keep on ice before use. Place this plate in incubator 1 on the TECAN countertop.

[2] = biological target: wild-type human cardiac sodium channel, hNav1.5 (late INa) (Homo sapiens, UniProt Q14524); test: Late INa screening assay (QPatch whole cell patch clamp); assay type: cell-based; conditions: percent block of late INa, compound at 1 μM, 10 μM Tefluthrin, HEK293 hNav1.5; read-out: Late INa 1 μM
Procedure: The late sodium current (Late INa) and peak sodium current (Peak INa) assays are performed on an automated electrophysiology platform, QPatch 16× (Sophion Bioscience, Copenhagen, Denmark), which uses the whole cell patch clamp technique to measure currents through the cell membrane of up to 16 cells at a time. The assay uses an HEK293 (human embryonic kidney) cell line heterologously expressing the wild-type human cardiac sodium channel, hNav1.5, purchased from Millipore (Billerica, Mass.). No beta subunits were coexpressed with the Na channel alpha subunit. Cells are maintained with standard tissue culture procedures and stable channel expression is maintained with 400 μg/mL Geneticin in the culture medium. […] Experiments are carried out at 23-25° C. For both the Late INa and Peak INa assays, series resistance compensation is set to 100% and series resistance and whole-cell compensation are performed automatically. Currents are digitized at 25 kHz and low-pass filtered at 12 kHz and 10 kHz for the late and peak INa assays, respectively. Currents through open sodium channels are automatically recorded and stored in the Sophion Bioscience Oracle database (Sophion Bioscience, Copehagen, Denmark). Analysis is performed using QPatch Assay and database software and data are compiled in Excel. Compound stocks are routinely made by the Gilead Sample Bank in plastic vials to 10 mM in dimethyl sulfoxide (DMSO). In some cases, when compounds are not soluble in DMSO, they are made in 100% ethanol. Stocks are sonicated as necessary. […] The intracellular solution used to perfuse the inside of the cells for both the Late INa and Peak INa assays contains: 120 mM CsF, 20 mM CsCl, 5 mM EGTA, 5 mM HEPES and pH adjusted to 7.4 with CsOH. Compounds are diluted in extracellular solution to 1 μM in glass vials and then transferred to glass well plates before robotic addition to the cells. […] For the Late INa assay, sodium channels are activated every 10 seconds (0.1 Hz) by depolarizing the cell membrane to −20 mV for 250 milliseconds (ms) from a holding potential of −120 mV. In response to a −20 mV voltage step, typical hNav1.5 sodium currents activate rapidly to a peak negative current and then inactivate nearly completely within 3-4 ms. All compounds were tested to determine their activity in blocking the late sodium current. Late INa was generated by adding 10 μM Tefluthrin (pyrethroid) to the extracellular solution while recording Na currents. To confirm the block of late INa observed using the automated screening method, a second late INa enhancer (ATX-II) and the manual patch clamp method were used. ATX-II and tefluthrin occupy distinct, non-overlapping binding sites and modify Na^+ channel function differently to increase late INa. […] For the purposes of the screening, late INa is defined as the mean current between 225 ms and 250 ms after stepping to −20 mV to activate Na channels. […] Results are reported as percent block of late INa.

[3] = Microsomal stability assay, dog; assay type: in vitro ADME; conditions: metabolic stability, dog liver microsomes 0.5 mg/mL, substrate 3 uM
Procedure: as §1

[4] = Microsomal stability assay, rat; assay type: in vitro ADME; conditions: metabolic stability, rat liver microsomes 0.5 mg/mL, substrate 3 uM
Procedure: as §1

Sequence of wild-type human cardiac sodium channel, hNav1.5 (late INa) (Q14524 whole entry): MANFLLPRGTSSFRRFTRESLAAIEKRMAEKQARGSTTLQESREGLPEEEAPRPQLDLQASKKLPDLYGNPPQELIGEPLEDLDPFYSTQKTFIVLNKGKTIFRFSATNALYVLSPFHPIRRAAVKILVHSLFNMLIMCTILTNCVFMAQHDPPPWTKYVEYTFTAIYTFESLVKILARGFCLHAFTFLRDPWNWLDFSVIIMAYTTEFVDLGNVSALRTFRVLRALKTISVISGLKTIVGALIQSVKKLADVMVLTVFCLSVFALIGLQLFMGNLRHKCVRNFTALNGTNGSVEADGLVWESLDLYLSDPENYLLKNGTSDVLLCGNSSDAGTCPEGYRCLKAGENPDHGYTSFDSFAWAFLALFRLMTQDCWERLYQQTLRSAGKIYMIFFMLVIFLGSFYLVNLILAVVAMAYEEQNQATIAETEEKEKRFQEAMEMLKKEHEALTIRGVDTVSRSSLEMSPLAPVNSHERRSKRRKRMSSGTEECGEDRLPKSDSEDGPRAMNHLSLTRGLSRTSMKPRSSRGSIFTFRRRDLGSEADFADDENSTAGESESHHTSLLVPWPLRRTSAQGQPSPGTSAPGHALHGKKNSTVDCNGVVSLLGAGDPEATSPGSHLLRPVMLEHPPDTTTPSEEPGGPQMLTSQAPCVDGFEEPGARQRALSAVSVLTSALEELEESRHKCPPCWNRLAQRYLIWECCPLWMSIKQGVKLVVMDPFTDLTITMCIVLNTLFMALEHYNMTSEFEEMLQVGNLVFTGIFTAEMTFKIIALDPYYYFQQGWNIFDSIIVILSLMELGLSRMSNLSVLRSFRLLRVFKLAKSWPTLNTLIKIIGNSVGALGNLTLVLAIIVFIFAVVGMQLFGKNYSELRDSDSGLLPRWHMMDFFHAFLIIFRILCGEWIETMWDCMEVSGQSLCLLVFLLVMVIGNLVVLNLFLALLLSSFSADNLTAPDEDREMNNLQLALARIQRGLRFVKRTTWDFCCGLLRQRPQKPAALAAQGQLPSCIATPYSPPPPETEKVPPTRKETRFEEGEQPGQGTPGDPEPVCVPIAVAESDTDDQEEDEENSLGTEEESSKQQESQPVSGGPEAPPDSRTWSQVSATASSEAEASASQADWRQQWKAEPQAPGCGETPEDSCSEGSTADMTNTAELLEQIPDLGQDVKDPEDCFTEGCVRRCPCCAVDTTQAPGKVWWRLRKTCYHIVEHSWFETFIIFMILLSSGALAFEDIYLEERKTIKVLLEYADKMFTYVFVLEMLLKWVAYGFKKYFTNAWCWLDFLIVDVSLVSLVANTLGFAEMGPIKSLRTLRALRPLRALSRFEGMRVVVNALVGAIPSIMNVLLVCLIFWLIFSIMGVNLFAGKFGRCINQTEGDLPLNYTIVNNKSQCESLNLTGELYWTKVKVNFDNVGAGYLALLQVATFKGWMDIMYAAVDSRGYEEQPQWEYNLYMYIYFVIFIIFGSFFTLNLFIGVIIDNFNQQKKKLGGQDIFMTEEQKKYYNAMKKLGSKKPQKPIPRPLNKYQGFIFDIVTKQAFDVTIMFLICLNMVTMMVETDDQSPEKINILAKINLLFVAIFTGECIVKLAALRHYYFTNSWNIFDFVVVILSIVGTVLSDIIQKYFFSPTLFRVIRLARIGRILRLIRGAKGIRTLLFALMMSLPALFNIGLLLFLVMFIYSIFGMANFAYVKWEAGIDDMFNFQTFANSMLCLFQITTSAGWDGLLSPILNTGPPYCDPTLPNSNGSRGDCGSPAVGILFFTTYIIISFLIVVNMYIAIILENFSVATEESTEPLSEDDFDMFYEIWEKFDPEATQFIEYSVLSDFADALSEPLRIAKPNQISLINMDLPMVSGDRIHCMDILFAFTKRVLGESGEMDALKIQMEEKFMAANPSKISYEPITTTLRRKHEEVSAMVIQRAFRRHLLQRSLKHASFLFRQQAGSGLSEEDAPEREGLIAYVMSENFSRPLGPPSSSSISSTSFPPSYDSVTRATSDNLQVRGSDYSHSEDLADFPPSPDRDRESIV

SMILES	MS Human THalf [1] [min]	inhibition at 1 µM [2] [%]	MS Dog THalf [3] [min]	MS Rat THalf [4] [min]
O=c1c2cc(-c3cnc(N4CCCCC4)nc3)ccc2nnn1CCOc1ncccn1 [Compound V-12, 6-(2-(piperidin-1-yl)pyrimidin-5-yl)-3-(2-(pyrimidin-2-yloxy)ethyl)benzo[d][1,2,3]triazin-4(3H)-one]	9	26	5	11
Cc1nc(Cn2nnc3ccc(-c4ccc(OC(F)(F)F)cc4)cc3c2=O)no1 [II-6, 3-((5-methyl-1,2,4-oxadiazol-3-yl)methyl)-6-(4-(trifluoromethoxy)phenyl)benzo[d][1,2,3]triazin-4(3H)-one]	164	43	123	144
Cc1noc(Cn2nnc3ccc(-c4ccc(Oc5ccccc5)cc4)cc3c2=O)n1 [II-7, 3-((3-methyl-1,2,4-oxadiazol-5-yl)methyl)-6-(4-phenoxyphenyl)benzo[d][1,2,3]triazin-4(3H)-one]	10	75	4	10
O=c1c2cc(-c3ccc(OC(F)(F)F)cc3)ccc2nnn1CCn1cccn1 [II-13, 3-(2-(1H-pyrazol-1-yl)ethyl)-6-(4-(trifluoromethoxy)phenyl)benzo[d][1,2,3]triazin-4(3H)-one]	149	67	36	25
O=c1c2cc(-c3ccc(OC(F)(F)F)cc3)ccc2nnn1CCc1ccccn1 [II-15, 3-(2-(pyridin-2-yl)ethyl)-6-(4-(trifluoromethoxy)phenyl)benzo[d][1,2,3]triazin-4(3H)-one]	33	71	23	19
Cc1noc(Cn2nnc3ccc(-c4ccc(Oc5ccc(Cl)cc5)cc4)cc3c2=O)n1 [II-16, 6-(4-(4-chlorophenoxyl)phenyl)-3-((3-methyl-1,2,4-oxadiazol-5-yl)methyl)benzo[d][1,2,3]triazin-4(3H)-one]	74	76	31	102
O=C(Cn1nnc2ccc(-c3ccc(OC(F)(F)F)cc3)cc2c1=O)N1CCN(c2ncccn2)CC1 [II-41, 3-(2-oxo-2-(4-(pyrimidin-2-yl)piperazin-1-yl)ethyl)-6-(4-(trifluoromethoxy)phenyl)benzo[d][1,2,3]triazin-4(3H)-one]	28	25	80	16
N#CC1(c2ccc(-c3ccc4nnn(CCOc5ncccn5)c(=O)c4c3)cc2)CC1 [II-50, 1-(4-(4-oxo-3-(2-(pyrimidin-2-yloxy)ethyl)-3,4-dihydrobenzo[d][1,2,3]triazin-6-yl)phenyl)cyclopropanecarbonitrile]	165	30	159	49
N#Cc1cnc(OCCn2nnc3ccc(-c4ccc(OC(F)(F)F)cc4)cc3c2=O)nc1 [II-51, 2-(2-(4-oxo-6-(4-(trifluoromethoxy)phenyl)benzo[d][1,2,3]triazin-3(4H)-yl)ethoxy)pyrimidine-5-carbonitrile]	> 395	35	93	197
O=c1c2cc(-c3ccc(OC(F)(F)F)cc3)ccc2nnn1CCn1ccc(C(F)(F)F)n1 [II-52, 6-(4-(trifluoromethoxy)phenyl)-3-(2-(3-(trifluoromethyl)-1H-pyrazol-1-yl)ethyl)benzo[d][1,2,3]triazin-4(3H)-one]	319	32	76	118
CC(c1nc(-c2ncccn2)no1)n1nnc2ccc(-c3ccc(OC(F)(F)F)cc3)cc2c1=O (stereo not drawn) [II-53, 3-(1-(3-(pyrimidin-2-yl)-1,2,4-oxadiazol-5-yl)ethyl)-6-(4-(trifluoromethoxy)phenyl)benzo[d][1,2,3]triazin-4(3H)-one]	> 395	29	646	> 395
CCc1nccn1CC1(Cn2nnc3ccc(-c4ccc(OC(F)(F)F)cc4)cc3c2=O)CC1 [II-57, 3-((1-((2-ethyl-1H-imidazol-1-yl)methyl)cyclopropyl)methyl)-6-(4-(trifluoromethoxy)phenyl)benzo[d][1,2,3]triazin-4(3H)-one]	2	38	4	2
COc1ncc(-c2cnn(CCn3ncc4ccc(-c5ccc(OC(F)(F)F)cc5)cc4c3=O)c2)cn1 [III-34, 2-(2-(4-(2-methoxypyrimidin-5-yl)-1H-pyrazol-1-yl)ethyl)-7-(4-(trifluoromethoxy)phenyl)phthalazin-1 (2H)-one]	50	–	46	41
CCOC(=O)Cn1cc(C(=O)N2CCc3ccc(-c4ccc(C(F)(F)F)cc4)cc3C2)nn1 [IX-119, ethyl 2-(4-(7-(4-(trifluoromethyl)phenyl)-1,2,3,4-tetrahydroisoquinoline-2-carbonyl)-1H-1,2,3-triazol-1-yl)acetate]	–	15	–	–
O=C(N1CCCC1)N1CCc2ccc(-c3ccc(OC(F)(F)F)cc3)cc2C1 [IX-122, pyrrolidin-1-yl(7-(4-(trifluoromethoxy)phenyl)-3,4-dihydroisoquinolin-2(1H)-yl)methanone]	–	36	–	–
O=C(NCc1ncccn1)N1CCc2ccc(-c3ccc(OC(F)(F)F)cc3)cc2C1 [IX-123, N-(pyrimidin-2-ylmethyl)-7-(4-(trifluoromethoxy)phenyl)-3,4-dihydroisoquinoline-2(1H)-carboxamide]	–	17	–	–
CC1(C)Oc2ccc(-c3ccc(OC(F)(F)F)cc3)cc2C(=O)N1Cc1ccccn1 [VIII-13, 2,2-dimethyl-3-(pyridin-2-ylmethyl)-6-(4-(trifluoromethoxy)phenyl)-2H-benzo[e][1,3]oxazin-4(3H)-one]	–	20	–	–
O=C1c2cc(-c3ccc(C(F)(F)F)cc3F)ccc2OCN1Cc1ncccn1 [VIII-18, 6-(2-fluoro-4-(trifluoromethyl)phenyl)-3-(pyrimidin-2-ylmethyl)-2H-benzo[e][1,3]oxazin-4(3H)-one]	–	54	–	–
O=C1c2cc(-c3ccc(C(F)(F)F)cc3)ccc2OCN1Cc1ncccn1 [VIII-19, 3-(pyrimidin-2-ylmethyl)-6-(4-(trifluoromethyl)phenyl)-2H-benzo[e][1,3]oxazin-4(3H)-one]	–	61	–	–
O=C1c2cc(-c3ccc(C(F)(F)F)cc3)ccc2OCN1Cc1ccccc1 [VIII-21, 3-benzyl-6-(4-(trifluoromethyl)phenyl)-2H-benzo[e][1,3]oxazin-4(3H)-one]	–	58	–	–
O=C1c2cc(-c3ccc(C(F)(F)F)cc3F)ccc2OCN1Cc1ccccc1 [VIII-22, 3-benzyl-6-(2-fluoro-4-(trifluoromethyl)phenyl)-2H-benzo[e][1,3]oxazin-4(3H)-one]	–	45	–	–
O=C1c2cc(-c3ccc(OC(F)(F)F)cc3)ccc2OCN1Cc1ccccc1 [VIII-23, 3-benzyl-6-(4-(trifluoromethoxy)phenyl)-2H-benzo[e][1,3]oxazin-4(3H)-one]	–	48	–	–
